# “And” between values parts separate entries of the source, which are not always exact repeats. Equal entries are not always repeated.
# Test system: peripheral mononeuropathy (Bennett model) in rats
# Test: Peripheral mononeuropathy (Bennett model, chronic constriction injury), paw pressure test (Example 3)
# Format: in vivo, male Sprague-Dawley rats
# Conditions: for paw withdrawal threshold, control paw, Mean: n = 10; for Nociceptive threshold, control paw (mean ± s.e.m.): T0 (14 days after surgery, before dosing)
# Description: The model of Chronic Constriction Injury (CCI) is based on a discrete peripheral nerve injury and can be related to post-traumatic/postsurgical neuropathic pain experienced by patients (Bennett, G. J. and Xie, Y. K., A peripheral mononeuropathy in rat that produces disorders of pain sensation like those seen in man, Pain, 1988(33):87-107). Unilateral peripheral mononeuropathy was induced by loose ligation of the rat the sciatic nerve of the right hindpaw in anaesthetized rats (xylazine 10 mg/kg i.p., ketamine 60 mg/kg i.p.). The common sciatic nerve was exposed at the level of the middle of the thigh by blunt dissection through the biceps femoris. Proximal to the sciatic trifurcation, four ligatures were tied loosely around it with about 1 mm spacing. Great care was taken to tie the ligatures, such that the diameter of the nerve was seen to be just barely constricted.
# Fourteen days later, static mechanical hyperalgesia is assessed using the Paw pressure test (Randall, L. O. and Selitto, J. J., A method for measurement of analgesic activity on inflamed tissue, Arch Int Pharmacodyn, 1957(111):409-419). This test requires the application of an increasing pressure on the hind paws between a flat surface and a blunt pointer. This test is usually used with animals with one hindpaw inflamed by an injection or injured by ligation, and one normal hindpaw, to evaluate drugs for analgesic action. The apparatus exerts a steadily increasing force and reaction threshold is determined as the pressure (g) required to elicit paw withdrawal and/or vocalization. Ugo Basile Analgesimeter (Ugo Basile, Italy) was used for the paw pressure test.
# Fourteen days after surgery (D0), nociceptive reaction thresholds (vocalization or paw withdrawal) was measured in order to select animals meeting the inclusion criteria: 20 g<paw withdrawal threshold<240 g (baseline).
# Fifty (50) male Sprague-Dawley rats (SPF status, Janvier, France), weighing 133-181 grams the day of surgery were used. Rats were housed in a temperature (20-24° C.) and relative humidity (45%-65%) controlled room and acclimated to an artificial day/night cycle of 12 hours light (6:30 a.m. to 6:30 p.m.)/12 hours darkness. Rats had free access to sterilized tap water and were fed ad libitum with pelleted complete diet (reference A04, S.A.F.E.). Animals were housed 4 per cage (cages Type E) and were acclimated for a period of at least 5 days before any testing. Each rat was identified by tail markings. Based on the SPF status of the animal facilities, there is no reason to expect that contaminants were present in the food, water or bedding, at levels capable of interfering with the results of the tests. […]
# Vehicle and MIN-117 were intraperitoneally administered at 10 mL/kg. […] Dosing and testing were performed in a random order by a blinded experimenter except for the morphine-treated group.
# Thirty minutes after morphine injection, the antihyperalgesic effect of morphine was evaluated using the paw pressure test. For vehicle and MIN-117 administration, the antihyperalgesic effect of the was evaluated after 120 min. using the paw pressure test.
# Results were expressed as: • The paw withdrawal threshold (mean±s.e.m.) in grams of contact pressure for each group, calculated from individual paw withdrawal thresholds • The percentage of variation of the paw withdrawal threshold calculated from the mean value of the vehicle-treated group • The percentage of activity of the compound on mechanical hyperalgesia induced by the sciatic nerve ligation, calculated as follows: […]
# [1] = CCI rats, MIN-117 1 mg/kg IP group, Baseline (pre-treatment)
# [2] = CCI rats, MIN-117 1 mg/kg IP, 120 min
# [3] = CCI rats, MIN-117 1 mg/kg IP, 120 min after treatment, hydrochloride, 1 mg/kg
# [4] = CCI rats, MIN-117 3 mg/kg IP group, Baseline (pre-treatment)
# [5] = CCI rats, MIN-117 3 mg/kg IP, 120 min
# [6] = CCI rats, MIN-117 3 mg/kg IP, 120 min after treatment, hydrochloride, 3 mg/kg
# [7] = CCI rats, MIN-117 10 mg/kg IP group, Baseline (pre-treatment)
# [8] = CCI rats, MIN-117 10 mg/kg IP, 120 min
# [9] = CCI rats, MIN-117 10 mg/kg IP, 120 min after treatment, hydrochloride, 10 mg/kg
# [10] = CCI, 1 mg/kg IP, T0 (before dosing)
# [11] = CCI, 3 mg/kg IP, T0 (before dosing)
# [12] = CCI, 10 mg/kg IP, T0 (before dosing)
# [13] = CCI rats, Morphine 3 mg/kg IP [sic], 30 min
# [14] = CCI rats, Morphine 3 mg/kg IP [sic], 30 min after treatment
# [15] = CCI rats, Morphine 3 mg/kg group, Baseline (pre-treatment)
# [16] = CCI, 3 mg/kg SC, T0 (before dosing)
smiles,measurement,setting,value
"Cc1nnc(-c2cc3c(OC[C@@H](O)CN4CCC(c5ccc(Cl)c(Cl)c5)CC4)cccc3o2)o1.Cl [MIN-117, (2S)-1-(4-(3,4-dichlorophenyl)piperidin-1-yl)-3-((2-(5-methyl-1,3,4-oxadiazol-2-yl)benzofuran-4-yl)oxy)propan-2-ol hydrochloride]","% variation vs control paw, injured paw",[1],−54%
same,"% variation vs vehicle treated group, injured paw",[1],−6%
same,"paw withdrawal threshold, control paw, Mean",[1],366 g
same,"% activity on mechanical hyperalgesia, injured paw",[2],9%
same,"% variation vs control paw, injured paw",[2],−47%
same,"% variation vs pre-drug threshold, injured paw",[2],10%
same,"% variation vs vehicle treated group, injured paw",[2],11%
same,"paw withdrawal threshold, control paw, individual rats",[3],400 g (2×) and 300 g (2×) and 360 g and 320 g (4×) and 440 g
same,"paw withdrawal threshold, injured paw, individual rats",[3],200 g (3×) and 180 g (3×) and 160 g (3×) and 220 g
same,"paw withdrawal threshold, control paw, Mean","CCI rats, MIN-117 1 mg/kg IP, 120 min after treatment",348 g
same,"% variation vs control paw, injured paw",[4],−55%
same,"% variation vs vehicle treated group, injured paw",[4],−8%
same,"paw withdrawal threshold, control paw, Mean",[4],364 g
same,"% activity on mechanical hyperalgesia, injured paw",[5],29%
same,"% variation vs control paw, injured paw",[5],−40%
same,"% variation vs pre-drug threshold, injured paw",[5],35%
same,"% variation vs vehicle treated group, injured paw",[5],34%
same,"paw withdrawal threshold, control paw, individual rats",[6],440 g and 420 g (2×) and 300 g and 360 g (2×) and 340 g (2×) and 460 g and 280 g
same,"paw withdrawal threshold, injured paw, individual rats",[6],280 g and 220 g (2×) and 200 g (3×) and 180 g and 240 g (3×)
same,"paw withdrawal threshold, control paw, Mean","CCI rats, MIN-117 3 mg/kg IP, 120 min after treatment",372 g
same,"% variation vs control paw, injured paw",[7],−55%
same,"% variation vs vehicle treated group, injured paw",[7],−8%
same,"paw withdrawal threshold, control paw, Mean",[7],368 g
same,"% activity on mechanical hyperalgesia, injured paw",[8],59%
same,"% variation vs control paw, injured paw",[8],−33%
same,"% variation vs pre-drug threshold, injured paw",[8],71%
same,"% variation vs vehicle treated group, injured paw",[8],69%
same,"paw withdrawal threshold, control paw, individual rats",[9],600 g and 320 g and 440 g (4×) and 400 g and 280 g and 480 g and 360 g
same,"paw withdrawal threshold, injured paw, individual rats",[9],440 g and 320 g (2×) and 260 g and 220 g and 240 g (4×) and 280 g
same,"paw withdrawal threshold, control paw, Mean","CCI rats, MIN-117 10 mg/kg IP, 120 min after treatment",420 g
same,"Nociceptive threshold, control paw (mean ± s.e.m.)","CCI, 1 mg/kg IP",366 ± 16.1 g
same,"% variation vs control paw, injured paw",[10],−54%
same,"% variation vs vehicle-treated group, injured paw",[10],−6%
same,"Nociceptive threshold, injured paw (mean ± s.e.m.)",[10],168 ± 8.0 g
same,"% variation vs control paw, injured paw","CCI, 1 mg/kg IP, T0 + 120 min",−47%
same,"% variation vs pre-drug threshold, injured paw","CCI, 1 mg/kg IP, T0 + 120 min",10%
same,"% variation vs vehicle-treated group, injured paw","CCI, 1 mg/kg IP, T0 + 120 min",11%
same,"Nociceptive threshold, injured paw (mean ± s.e.m.)","CCI, 1 mg/kg IP, T0 + 120 min",184 ± 6.5 g
same,Effect on nociceptive threshold vs vehicle-treated group (in words),"CCI, 1 mg/kg i.p., 120 min. after treatment",did not induce any significant increase
same,"Nociceptive threshold, control paw (mean ± s.e.m.)","CCI, 3 mg/kg IP",364 ± 9.8 g
same,"% variation vs control paw, injured paw",[11],−55%
same,"% variation vs vehicle-treated group, injured paw",[11],−8%
same,"Nociceptive threshold, injured paw (mean ± s.e.m.)",[11],164 ± 5.8 g
same,"% variation vs control paw, injured paw","CCI, 3 mg/kg IP, T0 + 120 min",−40%
same,"% variation vs pre-drug threshold, injured paw","CCI, 3 mg/kg IP, T0 + 120 min",35%
same,"% variation vs vehicle-treated group, injured paw","CCI, 3 mg/kg IP, T0 + 120 min",34%
same,"Nociceptive threshold, injured paw (mean ± s.e.m.)","CCI, 3 mg/kg IP, T0 + 120 min, hydrochloride, 3 mg/kg",222 ± 9.2 g
same,Effect on nociceptive threshold vs vehicle-treated group (in words),"CCI, 3 mg/kg i.p., after 120 min.",significant increase
same,"Nociceptive threshold, control paw (mean ± s.e.m.)","CCI, 10 mg/kg IP",368 ± 16.9 g
same,"% variation vs control paw, injured paw",[12],−55%
same,"% variation vs vehicle-treated group, injured paw",[12],−8%
same,"Nociceptive threshold, injured paw (mean ± s.e.m.)",[12],164 ± 7.2 g
same,"% variation vs control paw, injured paw","CCI, 10 mg/kg IP, T0 + 120 min",−33%
same,"% variation vs pre-drug threshold, injured paw","CCI, 10 mg/kg IP, T0 + 120 min",71%
same,"% variation vs vehicle-treated group, injured paw","CCI, 10 mg/kg IP, T0 + 120 min",69%
same,"Nociceptive threshold, injured paw (mean ± s.e.m.)","CCI, 10 mg/kg IP, T0 + 120 min, hydrochloride, 10 mg/kg",280 ± 20.9 g
same,Effect on nociceptive threshold vs vehicle-treated group (in words),"CCI, 10 mg/kg i.p., after 120 min.",significant increase
"CN1CC[C@]23c4c5ccc(O)c4O[C@H]2[C@@H](O)C=C[C@H]3[C@H]1C5 [Morphine, reference compound]","% activity on mechanical hyperalgesia, injured paw",[13],165%
same,"% variation vs control paw, injured paw",[13],−23%
same,"% variation vs pre-drug threshold, injured paw",[13],159%
same,"paw withdrawal threshold, control paw, individual rats",[14],680 g (2×) and 640 g (3×) and 600 g (3×) and 560 g and 660 g
same,"paw withdrawal threshold, injured paw, individual rats",[14],680 g and 600 g (2×) and 480 g (2×) and 560 g and 320 g and 500 g and 240 g and 400 g
same,"paw withdrawal threshold, control paw, Mean",[14],630 g
same,"% variation vs control paw, injured paw",[15],−49%
same,"% variation vs vehicle treated group, injured paw",[15],6%
same,"paw withdrawal threshold, control paw, Mean",[15],372 g
same,"Nociceptive threshold, control paw (mean ± s.e.m.)","CCI, 3 mg/kg SC",372 ± 20.7 g
same,"% variation vs control paw, injured paw",[16],−49%
same,"% variation vs vehicle-treated group, injured paw",[16],6%
same,"Nociceptive threshold, injured paw (mean ± s.e.m.)","CCI, 3 mg/kg SC, T0 (before dosing), 3 mg/kg",188 ± 10.4 g
same,"% variation vs control paw, injured paw","CCI, 3 mg/kg SC, T0 + 30 min",−23%
same,"% variation vs pre-drug threshold, injured paw","CCI, 3 mg/kg SC, T0 + 30 min",159%
same,"Nociceptive threshold, injured paw (mean ± s.e.m.)","CCI, 3 mg/kg SC, T0 + 30 min, 3 mg/kg",486 ± 42.8 g
same,Effect on nociceptive threshold vs baseline pre-treatment (in words),"CCI, 3 mg/kg s.c., 30 min. after the administration",pronounced and significant increase

# Reference: patent publication US11766430B2, “Methods of using a phenoxypropylamine compound to treat pain” (Minerva Neurosciences, Inc., priority 2018, dated 2023)
